Consider nine compounds from patent US10011562B2, “Long-chain dimethylaniline derivative compounds, their preparation methods, self-assembled textures, and uses thereof” (WEST CHINA HOSPITAL, SICHUAN UNIVERSITY, priority 2014, dated 2018).

Each structure is given as a SMILES string. Where a name gives a salt, the structure may show the parent alone.

Test [1] deals with sciatic nerve of rats. Description: Third local anesthetic experiment of rats: hydrogels embedded near the sciatic nerve, mechanical withdrawal threshold (VFH). The test is classed as in vivo. Here is the method:
(§1) Rats were placed in transparent observation cages with a bottom of smooth metal sieve plate, and the corrected von frey filament was used to stimulate the foot lateral skin of rats (innervated region of sciatic nerve) from down to up. […] For each stimulation, slightly bent of filament was used as a standard, or rats moved aside this side of limbs. Otherwise, once the stimulation time reached 3 s, operator stopped stimulating. Three tests were carried out for each time point, and the interval between two tests was 5 min, to avoid sensibilization.
(§2) If the mechanical withdrawal threshold value was more than 60 g, the nerve blocking was considered as effective.
(§3) 25 mmol/L transparent uniform hydrogels of products obtained in Examples 7-10 and 13-32 were prepared under sterile conditions, as the method of Example 45, and kept for use.
(§4) Above hydrogels, positive control lidocaine, and negative control normal saline were respectively administrated to 35 groups of test rats fully adapted to experiment environment, with five rats for each group. The administration dosage is: the concentration of lidocaine group being 2% aqueous solution (84 mmol/L). The injection volume of each rat receiving drugs or the control was […], and the control was injected to near the sciatic nerve of rats by guidance of nerve locator; by surgery, the gels were embedded near the sciatic nerve of experimental rats after general anesthesia using sevoflurane. Specific procedures and the evaluation criterion for local anesthetic effect were same as mentioned in Example 60.

Test [2] concerns sciatic nerve of rats. Put plainly: First local anesthetic experiment of rats: blocking of sciatic nerve, motor function by hindlimb postural extensor thrust (PET). The test is classed as in vivo. Here is the method:
(§5) Selected above micelle, positive control lidocaine, and negative control normal saline were respectively administrated to 28 groups of test rats fully adapted to experiment environment, with five rats for each group. The administration dosage is: the concentration of lidocaine group being 2% aqueous solution (84 mmol/L), and the concentration of tested drug being 5 mmol/L. The injection volume of each rat receiving drugs or the control was 0.2 ml, and the drug or the control was injected to close to sciatic nerve of rats by guidance of nerve locator.
(§6) The tested rats were placed on bench board and allowed to inhale 5% isoflurane. After body-righting reflex abolition, rats are allowed to continue inhaling 1.5% isoflurane, to keep anesthesia. Keeping left-lateral position, their corresponding injection area sacrococygeal region was shaved, then routine sterilization and draping were performed. Two osseous anatomic landmarks greater trochanter of femur and tuber is chiadicum were laid hands, and the middle point of this line was the needle insertion position. If skin was taut, 1 ml injector was inserted along perpendicular of skin. When needlepoint reached hucklebone, the insertion was finished. […] Needle was lifted, and is oflurane was shut off. Animals were placed in observation cage until they naturally awakened.
(§7) The hindlimb postural extensor thrust (PET) was used for evaluation. Rats were lifted vertically and their hindlimbs of injection side stepped on the top of electronic balance. At this time, the postural extensor thrust was shown as the value of balance. When limbs were completely paralytic, the digital reading was the weight of limbs, about 20 g. If the test value was more than half of the difference between the baseline and the limbs weight, the motor function was taken as recovery; If less than or equal to half of the difference, the motor function was taken as deprivation.
(§8) The interval between completion of injection and the time point that the motor function was firstly deprivated was the time of effective motor blocking; the interval between completion of injection and the time point that the motor function was firstly recovered was the time of ineffective motor blocking; their difference was the hold time of motor blocking.

For test [3], the system named is sciatic nerve of rats. Description: Second local anesthetic experiment of rats: blocking of sciatic nerve, mechanical withdrawal threshold (VFH). Conditions: 0.2 ml of formulated solution injected close to sciatic nerve, lidocaine 2% (84 mmol/L). It is filed as in vivo. Here is the method: (§9) The tested rats were placed on bench board and allowed to inhale 5% isoflurane. After body-righting reflex abolition, rats are allowed to continue inhaling 1.5% isoflurane, to keep anesthesia. Keeping left-lateral position, their corresponding injection area sacrococygeal region was shaved, then routine sterilization and draping were performed. Two osseous anatomic landmarks greater trochanter of femur and tuber is chiadicum were laid hands, and the middle point of this line was the needle insertion position. If skin was taut, 1 ml injector was inserted along perpendicular of skin. When needlepoint reached hucklebone, the insertion was finished. Once no blood return was found as suction, 0.2 ml drug solution was slowly injected. Needle was lifted, and is oflurane was shut off. Animals were placed in observation cage until they naturally awakened.
Rats were placed in transparent observation cages with a bottom of smooth metal sieve plate, and the corrected von frey filament was used to stimulate the foot lateral skin of rats (innervated region of sciatic nerve) from down to up. […] For each stimulation, slightly bent of filament was used as a standard, or rats moved aside this side of limbs. Otherwise, once the stimulation time reached 3 s, operator stopped stimulating. Three tests were carried out for each time point, and the interval between two tests was 5 min, to avoid sensibilization. […]

The subject of test [4] is sciatic nerve of rats. Description: First local anesthetic experiment of rats: blocking of sciatic nerve, mechanical withdrawal threshold (VFH, von Frey filaments). It is filed as in vivo. Here is the method:
as §5, §6, §1, §2

The test system of test [5] is sciatic nerve of rats. Put plainly: Third local anesthetic experiment of rats: hydrogels embedded near the sciatic nerve, motor function (PET). It is filed as in vivo.
Text: as §7, §8, §3, §4

The subject of test [6] is sciatic nerve of rats. Description: Second local anesthetic experiment of rats: blocking of sciatic nerve, motor function (PET). It is filed as in vivo. Conditions: 0.2 ml of formulated solution injected close to sciatic nerve, lidocaine 2% (84 mmol/L). Here is the method:
as §9
The hindlimb postural extensor thrust (PET) was used for evaluation. Rats were lifted vertically and their hindlimbs of injection side stepped on the top of electronic balance. At this time, the postural extensor thrust was shown as the value of balance. When limbs were completely paralytic, the digital reading was the weight of limbs, about 20 g. […]

Test [7] deals with Na+ channels. Conditions: with the addition of surface-active agent or with the help of forming micelles; cited from earlier work.
The mark [8] stands for this setting: rats, 25 mmol/L hydrogel, 0.2 g embedded by surgery near sciatic nerve, lidocaine 2% (84 mmol/L) injected.

Turning to `CCN(CC)CC(=O)Nc1c(C)cccc1C` [2% lidocaine hydrochloride, lidocaine hydrochloride, reference compound], the “Effective local anesthetic time” value came out at 1 min in test [1] (setting [8]); 1 min in test [3]; 1 min in test [4] (rats, 0.2 ml injected close to sciatic nerve, tested drug 5 mmol/L solution (micelle), lidocaine 2% aqueous solution (84 mmol/L)). The “The hold time of sensation blocking” value in test [1] (setting [8]) worked out at 2 h; in test [3], 2 h; in test [4] (rats, 0.2 ml injected close to sciatic nerve, tested drug 5 mmol/L solution (micelle), lidocaine 2% (84 mmol/L), threshold above 60 g) it was 2 h. Also, the “The hold time of motor blocking” value in test [2] (rats, 0.2 ml injected close to sciatic nerve, tested drug 5 mmol/L solution (micelle), lidocaine 2% (84 mmol/L)) was determined as 2 h; in test [5] (setting [8]), 2 h; in test [6], 2 h.
Regarding `CCCCCCCCCCCOC(=O)OCC[N+](CC)(CC)CC(=O)Nc1c(C)cccc1C` [Example25product], the “Effective local anesthetic time” value is reported as 82 min in test [1] (rat, in vivo) and 20 min in test [4] (rat, in vivo). Further, the “The hold time of sensation blocking” value in test [1] (rat, in vivo) was determined as 83 h; in test [4] (rat, in vivo) it was 81 h. The “The hold time of motor blocking” value in test [2] (rat, in vivo) was found to be 80 h; in test [5] (rat, in vivo), 79 h.
On to `CCCCCCCCCCCCOC(=O)OCC[N+](CC)(CC)CC(=O)Nc1c(C)cccc1C` [Example26product], for which the “Effective local anesthetic time” value in test [1] (rat, in vivo) is on record as 88 min; in test [4] (rat, in vivo), 20 min. Further, the “The hold time of sensation blocking” value in test [1] (rat, in vivo) amounted to 81 h; in test [4] (rat, in vivo), 80 h. Also, the “The hold time of motor blocking” value in test [2] (rat, in vivo) is given as 80 h; in test [5] (rat, in vivo), 77 h.
`CCCCCCCCCCCCOC(=O)OCC[N+](CC)(CC)CC(=O)Nc1c(C)cccc1C` [Example27product]: the “Effective local anesthetic time” value in test [1] (rat, in vivo) is reported as 90 min; in test [4] (rat, in vivo), 20 min. Besides, the “The hold time of sensation blocking” value is 83 h in test [1] (rat, in vivo) and 78 h in test [4] (rat, in vivo). Also, the “The hold time of motor blocking” value in test [2] (rat, in vivo) was 80 h; in test [5] (rat, in vivo), 76 h.
Take `CCCCCCCCCCCCCCOC(=O)OCC[N+](CC)(CC)CC(=O)Nc1c(C)cccc1C` [Example28product]: the “Effective local anesthetic time” value in test [1] (rat, in vivo) is listed as 88 min; in test [4] (rat, in vivo), 20 min. Besides, the “The hold time of sensation blocking” value is on record as 83 h in test [1] (rat, in vivo) and 76 h in test [4] (rat, in vivo). In addition, the “The hold time of motor blocking” value in test [2] (rat, in vivo) is reported as 79 h; in test [5] (rat, in vivo), 79 h.
Regarding `CCCCCCCCCCCCCCCCOC(=O)OCC[N+](CC)(CC)CC(=O)Nc1c(C)cccc1C` [Example29product], the “Effective local anesthetic time” value in test [1] (rat, in vivo) came to 92 min; in test [4] (rat, in vivo), 20 min. The “The hold time of sensation blocking” value in test [1] (rat, in vivo) amounted to 86 h; in test [4] (rat, in vivo) it was 78 h. Also, the “The hold time of motor blocking” value in test [2] (rat, in vivo) was 80 h; in test [5] (rat, in vivo) it was 84 h.
On to `CCCCCCCCCCCCCCCCOC(=O)OCC[N+](CC)(CC)CC(=O)Nc1c(C)cccc1C` [Example30product], for which the “Effective local anesthetic time” value was 95 min in test [1] (rat, in vivo) and 19 min in test [4] (rat, in vivo). Besides, the “The hold time of sensation blocking” value in test [1] (rat, in vivo) was 87 h; in test [4] (rat, in vivo), 74 h. Besides, the “The hold time of motor blocking” value in test [2] (rat, in vivo) came out at 78 h; in test [5] (rat, in vivo), 86 h.
With `CCCCCCCCCCCCCCCCCCOC(=O)OCC[N+](CC)(CC)CC(=O)Nc1c(C)cccc1C` [Example31product], the “Effective local anesthetic time” value in test [1] (rat, in vivo) came to 92 min; in test [4] (rat, in vivo), 20 min. For the same compound, the “The hold time of sensation blocking” value in test [1] (rat, in vivo) was 83 h; in test [4] (rat, in vivo), 78 h. The “The hold time of motor blocking” value in test [2] (rat, in vivo) worked out at 80 h; in test [5] (rat, in vivo), 78 h.
In the case of `CC[N+](CC)(CC)CC(=O)Nc1c(C)cccc1C.[Br-]` [QX314], the “local anesthetic actions lasting” value in test [7] is given as “more than 8 hours”.
